From patent US8008346B2, “Chemotherapeutic agents for inhibition of protein translation” (The Royal University for the Advancement of Learning/McGill …, priority 2006, dated 2011)

Target: eIF4Ac (Homo sapiens, UniProt P60842)
Assay: UV crosslinking of alpha-32P-ATP to native eIF4F
Type: binding
Conditions: 50 μM
Experimental: FIG. 7. Effects of hippuristanol on ATP hydrolysis, ATP binding, and RNA binding activities of eIF4A. A. Hippuristanol inhibits eIF4AIf RNA-dependent ATPase activity. The rate of ATP hydrolysis as a function of hippuristanol concentration is plotted relative to the rate obtained in the presence of vehicle (0.5% DMSO). ATP hydrolysis was measured in the presence of 2.5 μM poly (U) and monitored by thin layer chromatography. […] Samples were resolved by SDS-PAGE and subjected to autoradiography. C. The RNA binding activity of eIF4AIf is inhibited by hippuristanol. Oxidized ^32P-cap labeled CAT mRNA was incubated with recombinant eIF4AIf in the absence (lane 2) or presence of ATP (lanes 1, 3-6), 0.6 mM m^7GDP (lane 3), 0.6 mM GDP (lane 4), or 50 μM hippuristanol (lane 6). Following treatment with RNase A, samples were resolved by SDS-PAGE and subjected to autoradiography. The asterisk denotes the position of migration of a ˜30 kDa contaminant in the recombinant eIF4AIf preparation used as an internal loading reference. D. The RNA binding activity of eIF4Ac is inhibited by hippuristanol. Oxidized ^32P-cap labeled CAT mRNA was incubated with 0.7 μg of native eIF4F in the absence (lane 1) or presence (lane 2) of 50 μM hippuristanol. […]
Recombinant eIF4AI Purification and Assays. […] Quantifications were performed on a Fujix BAS2000 phosphoimager with a Fuji imaging screen. […]

Sequence of eIF4Ac (P60842 whole entry): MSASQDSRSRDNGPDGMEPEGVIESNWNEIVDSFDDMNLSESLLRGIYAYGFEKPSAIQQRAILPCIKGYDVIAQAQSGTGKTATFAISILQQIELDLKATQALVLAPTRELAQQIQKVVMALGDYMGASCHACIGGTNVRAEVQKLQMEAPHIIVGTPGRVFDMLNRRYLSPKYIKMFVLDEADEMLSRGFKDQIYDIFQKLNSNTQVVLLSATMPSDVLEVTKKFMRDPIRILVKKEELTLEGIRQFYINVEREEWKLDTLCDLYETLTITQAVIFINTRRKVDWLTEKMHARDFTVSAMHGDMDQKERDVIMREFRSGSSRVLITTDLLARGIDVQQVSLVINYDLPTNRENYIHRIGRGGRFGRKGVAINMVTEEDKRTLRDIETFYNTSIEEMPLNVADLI
Sequence of eIF4Ac (P06730 whole entry partner): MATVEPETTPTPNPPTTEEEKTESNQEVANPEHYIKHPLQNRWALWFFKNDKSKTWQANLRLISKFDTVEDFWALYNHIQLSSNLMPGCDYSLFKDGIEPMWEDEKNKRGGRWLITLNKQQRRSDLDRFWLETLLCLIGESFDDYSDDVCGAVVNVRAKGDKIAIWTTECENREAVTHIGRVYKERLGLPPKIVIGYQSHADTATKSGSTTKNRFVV
Sequence of eIF4Ac (Q04637 whole entry partner): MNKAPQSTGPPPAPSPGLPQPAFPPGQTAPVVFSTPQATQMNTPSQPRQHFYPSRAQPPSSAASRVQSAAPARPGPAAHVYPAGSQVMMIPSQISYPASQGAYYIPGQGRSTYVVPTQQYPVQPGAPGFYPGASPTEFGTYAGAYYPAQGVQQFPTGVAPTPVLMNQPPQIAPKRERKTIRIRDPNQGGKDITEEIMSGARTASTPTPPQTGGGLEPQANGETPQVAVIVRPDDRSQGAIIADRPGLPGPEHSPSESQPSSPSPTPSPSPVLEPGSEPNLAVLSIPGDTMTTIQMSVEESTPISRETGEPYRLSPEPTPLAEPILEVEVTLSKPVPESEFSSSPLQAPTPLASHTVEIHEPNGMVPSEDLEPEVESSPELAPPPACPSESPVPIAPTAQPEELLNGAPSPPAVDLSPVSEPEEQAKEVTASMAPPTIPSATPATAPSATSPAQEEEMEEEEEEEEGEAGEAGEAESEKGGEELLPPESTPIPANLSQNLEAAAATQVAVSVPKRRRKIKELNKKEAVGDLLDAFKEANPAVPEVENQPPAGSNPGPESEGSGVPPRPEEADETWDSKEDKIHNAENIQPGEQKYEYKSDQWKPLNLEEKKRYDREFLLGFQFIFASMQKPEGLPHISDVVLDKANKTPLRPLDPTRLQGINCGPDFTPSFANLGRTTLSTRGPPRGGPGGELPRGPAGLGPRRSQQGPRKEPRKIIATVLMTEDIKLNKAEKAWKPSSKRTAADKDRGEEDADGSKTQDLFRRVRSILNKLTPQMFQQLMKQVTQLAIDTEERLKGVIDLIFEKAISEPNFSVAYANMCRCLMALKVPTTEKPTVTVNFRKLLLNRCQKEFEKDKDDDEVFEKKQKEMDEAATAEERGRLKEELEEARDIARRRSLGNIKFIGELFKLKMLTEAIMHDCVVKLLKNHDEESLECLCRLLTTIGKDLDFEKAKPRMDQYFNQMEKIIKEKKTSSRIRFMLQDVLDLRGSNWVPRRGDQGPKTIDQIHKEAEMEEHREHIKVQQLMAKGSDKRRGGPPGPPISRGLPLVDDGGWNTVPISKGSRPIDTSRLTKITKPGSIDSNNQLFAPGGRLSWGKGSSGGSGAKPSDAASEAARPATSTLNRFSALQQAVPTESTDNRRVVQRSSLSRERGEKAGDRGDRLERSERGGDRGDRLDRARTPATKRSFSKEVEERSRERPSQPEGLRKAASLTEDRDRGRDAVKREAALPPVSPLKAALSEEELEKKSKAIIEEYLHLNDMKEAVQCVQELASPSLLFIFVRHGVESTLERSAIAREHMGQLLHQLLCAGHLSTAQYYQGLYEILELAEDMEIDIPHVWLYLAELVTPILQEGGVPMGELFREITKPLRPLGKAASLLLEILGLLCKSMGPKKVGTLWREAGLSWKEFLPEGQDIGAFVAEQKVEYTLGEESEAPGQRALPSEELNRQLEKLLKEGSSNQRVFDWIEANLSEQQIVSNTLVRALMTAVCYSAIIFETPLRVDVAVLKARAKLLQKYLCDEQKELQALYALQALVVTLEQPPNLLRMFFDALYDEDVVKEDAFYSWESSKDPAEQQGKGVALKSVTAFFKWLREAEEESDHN

C[C@H]1C[C@@]2(O[C@H]3C[C@H]4[C@@H]5CC[C@H]6C[C@H](O)CC[C@]6(C)[C@H]5[C@@H](O)C[C@]4(C)[C@H]3[C@@]2(C)O)OC1(C)C [Hippuristanol, hippuristanol]
ATP crosslinking to eIF4Ac: does not affect
